Measurements reported in ChEMBL document CHEMBL3885861, “Open TG-GATES”.

Species: Rattus norvegicus
Assay: Open TG-GATES - Regimen: Single
Assay type: toxicity, organism-based, Sprague-Dawley
Parameters: regimen Single, gender Male, age 6 weeks
Conditions: in vivo, ip, 0.003 mg/kg, route intraperitoneal injection, dose 3 ug/Kg, dose level Middle; for APTT / Bas / Eos / Fbg / Hb / Ht / Lym / MCH / MCHC / MCV / Mono / Neu / PT / Plat / RBC / Ret / WBC: tissue Blood; for KIDNEY_L / KIDNEY_R / KIDNEY_TOTAL: tissue Kidney; for LIVER: tissue Liver; for A/G / ALP / ALT / AST / BUN / CRE / Ca / Cl / DBIL / GLC / IP / K / LDH / Na / PL / RALB / TBIL / TC / TG / TP / gamma-GTP: tissue Plasma

## H-KGDRLS-OH [TNF-ALPHA]
3 h
  TERMINAL_BW: 199 g
  APTT: 17.3 s
  Bas: 0%
  Eos: 0.4%
  Fbg: 265 mg/dL
  Hb: 13 g/dL
  Ht: 39.9%
  Lym: 70.4%
  MCH: 21.1 pg
  MCHC: 32.6%
  MCV: 64.9 fL
  Mono: 4.2%
  Neu: 23%
  PT: 15.9 s
  Plat: 112.9 x10_4/uL
  RBC: 614.6 x10_4/ul
  Ret: 9.2%
  WBC: 88.2 x10_2/uL
  KIDNEY_L: 0.9 g
  KIDNEY_R: 0.9 g
  KIDNEY_TOTAL: 1.8 g
  LIVER: 9.3 g
  A/G: 0.9
  ALP: 1480.4 IU/L
  ALT: 47.6 IU/L
  AST: 75.8 IU/L
  BUN: 10.8 mg/dL
  CRE: 0.2 mg/dL
  Ca: 10.8 mg/dL
  Cl: 104.8 meq/L
  DBIL: 0.01 mg/dL
  GLC: 162.2 mg/dL
  IP: 9.2 mg/dL
  K: 4.3 meq/L
  LDH: 68 IU/L
  Na: 141.6 meq/L
  PL: 137 mg/dL
  RALB: 2.5 g/dL
  TBIL: 0.052 mg/dL
  TC: 73 mg/dL
  TG: 61.8 mg/dL
  TP: 5.3 g/dL
  gamma-GTP: 1.4 IU/L
6 h
  TERMINAL_BW: 197.1 g
  APTT: 17.1 s
  Bas: 0%
  Eos: 0.4%
  Fbg: 321.4 mg/dL
  Hb: 13 g/dL
  Ht: 39.7%
  Lym: 63.4%
  MCH: 21.5 pg
  MCHC: 33%
  MCV: 65.1 fL
  Mono: 2.6%
  Neu: 32%
  PT: 15.1 s
  Plat: 110.6 x10_4/uL
  RBC: 610.4 x10_4/ul
  Ret: 8%
  WBC: 81.9 x10_2/uL
  KIDNEY_L: 0.9 g
  KIDNEY_R: 0.9 g
  KIDNEY_TOTAL: 1.8 g
  LIVER: 8.7 g
  A/G: 0.9
  ALP: 1155.6 IU/L
  ALT: 39.8 IU/L
  AST: 65.8 IU/L
  BUN: 8.6 mg/dL
  CRE: 0.2 mg/dL
  Ca: 10.7 mg/dL
  Cl: 105.6 meq/L
  DBIL: 0.008 mg/dL
  GLC: 170.4 mg/dL
  IP: 10.2 mg/dL
  K: 3.7 meq/L
  LDH: 72.8 IU/L
  Na: 143.4 meq/L
  PL: 147.6 mg/dL
  RALB: 2.5 g/dL
  TBIL: 0.06 mg/dL
  TC: 84.4 mg/dL
  TG: 27.2 mg/dL
  TP: 5.4 g/dL
  gamma-GTP: 1 IU/L
9 h
  TERMINAL_BW: 194.9 g
  APTT: 17.3 s
  Bas: 0%
  Eos: 0.4%
  Fbg: 380.6 mg/dL
  Hb: 12.9 g/dL
  Ht: 39.7%
  Lym: 66.2%
  MCH: 21.2 pg
  MCHC: 32.4%
  MCV: 65.5 fL
  Mono: 2.6%
  Neu: 29.8%
  PT: 15.4 s
  Plat: 104.9 x10_4/uL
  RBC: 606.6 x10_4/ul
  Ret: 8.3%
  WBC: 75.4 x10_2/uL
  KIDNEY_L: 0.9 g
  KIDNEY_R: 0.9 g
  KIDNEY_TOTAL: 1.8 g
  LIVER: 7.9 g
  A/G: 0.9
  ALP: 1301.4 IU/L
  ALT: 36.4 IU/L
  AST: 71.4 IU/L
  BUN: 7.6 mg/dL
  CRE: 0.2 mg/dL
  Ca: 10.6 mg/dL
  Cl: 105.6 meq/L
  DBIL: 0.004 mg/dL
  GLC: 159 mg/dL
  IP: 9.5 mg/dL
  K: 4 meq/L
  LDH: 46.6 IU/L
  Na: 142 meq/L
  PL: 155.4 mg/dL
  RALB: 2.5 g/dL
  TBIL: 0.062 mg/dL
  TC: 92.6 mg/dL
  TG: 25.2 mg/dL
  TP: 5.3 g/dL
  gamma-GTP: 1 IU/L
24 h
  TERMINAL_BW: 211 g
  APTT: 14.6 s
  Bas: 0%
  Eos: 1%
  Fbg: 361.4 mg/dL
  Hb: 12.8 g/dL
  Ht: 39.4%
  Lym: 77.6%
  MCH: 20.7 pg
  MCHC: 32.6%
  MCV: 63.6 fL
  Mono: 3.2%
  Neu: 14.8%
  PT: 15.5 s
  Plat: 115.8 x10_4/uL
  RBC: 619 x10_4/ul
  Ret: 8%
  WBC: 65.2 x10_2/uL
  KIDNEY_L: 0.9 g
  KIDNEY_R: 0.9 g
  KIDNEY_TOTAL: 1.8 g
  LIVER: 10 g
  A/G: 0.9
  ALP: 1666.2 IU/L
  ALT: 42.8 IU/L
  AST: 71.2 IU/L
  BUN: 16.4 mg/dL
  CRE: 0.2 mg/dL
  Ca: 11.1 mg/dL
  Cl: 106.8 meq/L
  DBIL: 0.01 mg/dL
  GLC: 177.8 mg/dL
  IP: 8.5 mg/dL
  K: 4.3 meq/L
  LDH: 74.6 IU/L
  Na: 142.4 meq/L
  PL: 155 mg/dL
  RALB: 2.6 g/dL
  TBIL: 0.042 mg/dL
  TC: 80.4 mg/dL
  TG: 80.8 mg/dL
  TP: 5.7 g/dL
  gamma-GTP: 1 IU/L
